Test results from the METLIN SMRT retention time set (Domingo-Almenara et al. 2019).

Test: gradient 5% acetonitrile 3 min, to 50% in 2 min, to 85% in 15 min, held 3 min, 100 µL/min
Details: column: Zorbax Extend-C18 2.1 x 50 mm; eluents: water / acetonitrile, 0.1% formic acid
Outline: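 Pure standards were run in mixtures of ~100 molecules by HPLC coupled to a quadrupole time-of-flight mass spectrometer. The column was a Zorbax Extend-C18 (2.1 × 50 mm, 1.8 μm) at 100 μL/min, with water and acetonitrile each containing 0.1% formic acid, in positive and negative ionization mode. Dead and dwell volumes were 40 μL and 900 μL. Retention time was taken from computationally picked adduct peaks, each manually inspected, with data collected over 3 months.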

| SMILES | RP-LC retention time |
| --- | --- |
| Cc1cccc2nnc(N3CCC(C(=O)Nc4ccc(Cl)cc4)CC3)n12 | 656 s |
| CCc1nnc2ccc(-c3noc(-c4cc(F)ccc4F)n3)cn12 | 896 s |
| CCOC(=O)C1CCN(C(=O)c2nc(-c3ccnc(N4CCCC4)c3)no2)CC1 | 673 s |
| Nc1nc(-c2ccccc2)nn1C(=O)c1ccccc1 | 904 s |
| COC(=O)CNC(=O)c1cc2c(=O)n(C)c3ccccc3n2n1 | 676 s |
| COc1ncccc1CNC(=O)c1cc(Cl)ccc1F | 1180 s |
| COc1cc([C@@H]2c3cc4c(cc3[C@H](O)[C@@H](CO)[C@@H]2C(=O)N2CCOCC2)OCO4)cc(OC)c1OC | 632 s |
| COc1ccccc1Cc1nc(C2CC(=O)N(c3ccc(F)c(Cl)c3)C2)no1 (centres undefined) | 1020 s |
| Cc1sc(-c2cc(C(F)(F)F)on2)cc1S(=O)(=O)Nc1ccccc1Cl | 1180 s |
| Cn1nc(C(=O)Nc2ccccc2)c2c1CCN(C(=O)Nc1cccc(Br)c1)C2 | 914 s |
| Cc1ccccc1Nc1c(-c2cccc(Br)c2)nc2ccccn12 | 799 s |
| CCC(C)CN(CC(=O)N1CCc2sccc2C1COc1ccccc1F)C(=O)COC (centres undefined) | 958 s |
| Cn1c(=O)sc2cc(S(=O)(=O)N3CCC(C(=O)NCCc4cccs4)CC3)ccc21 | 813 s |
| COc1cccc(S(=O)(=O)N2CCC(Cc3nncn3C)CC2)c1 | 641 s |
| O=C(NCc1ccccc1)C1=C2CCCN2c2ccccc2S1(=O)=O | 810 s |
| CCCN1CCN(CCCNC(=O)C(C)n2c(=O)c(C(F)(F)F)nc3ccccc32)CC1 (centres undefined) | 622 s |
| CC1CCCN(C(=O)CN2CCN(C)CC2)C1 (centres undefined) | 536 s |
| CCCn1c(=O)c2cc(C(=O)N3CCN(c4ccccc4)CC3)nn2c2ccccc21 | 1030 s |
| Cc1ccccc1-c1noc(C2CCCN2S(=O)(=O)c2ccc(Br)s2)n1 (centres undefined) | 1230 s |
| COc1ccc(-c2cc3c4nnc(CCC(=O)N5CCC(C(N)=O)CC5)n4ccn3n2)cc1 | 613 s |
| CCn1c(C)c(CCC(=O)Nc2ccc(C)c(C)c2)c(=O)n2nc(-c3ccccc3)nc12 | 935 s |
| Cc1nccn1Cc1nc(-c2ccccc2Cl)no1 | 624 s |
| COC(=O)c1c(-c2cccs2)csc1NC(=O)c1cc(OC)c(OC)c(OC)c1 | 1120 s |
| CCc1nnc(-c2ccc3ccn(CC(=O)Nc4ccc(NC(C)=O)cc4)c3c2)o1 | 703 s |
| CCc1noc(C2(NC(=O)c3ccc(C#N)cc3)CCCCC2)n1 | 896 s |

| SMILES | RP-LC retention time |
| --- | --- |
| Cc1nc2cc(N3CC(C(=O)N4CCN(c5ccccc5)CC4)CC3=O)ccc2o1 (centres undefined) | 727 s |
| CC(C)CNc1nc(-c2ccc([N+](=O)[O-])cc2)nc2ccccc12 | 821 s |
| Cc1cc(S(=O)(=O)N2CCN(c3cnn4c(C)nnc4c3)CC2)ccc1F | 708 s |
| COc1ccc(CNC(=O)C2CCCN(c3ccc(=O)n(-c4ccc(C)c(Cl)c4)n3)C2)cc1OC (centres undefined) | 837 s |
| COc1ccc(-c2noc(-c3nc(-c4ccccc4OC)no3)n2)cc1OC | 1070 s |
| O=C(Cn1c(=O)n(C2CC2)c(=O)c2nscc21)NCCC1=CCCCC1 | 776 s |
| O=C(Cc1cccnc1)N1CCC(c2nc(-c3ccncc3)no2)C1 (centres undefined) | 548 s |
| CC(C)NC(=O)C1CCc2sc(C(=O)N3CCOCC3)cc2C1 (centres undefined) | 596 s |
| O=c1c2ccccc2n(Cc2nc(-c3ccc(Cl)cc3)no2)c(=O)n1CC1CCCO1 (centres undefined) | 1080 s |
| CCc1ccccc1NC(=O)C1CCN(S(=O)(=O)c2c(C)nn(-c3ccccc3)c2C)CC1 | 985 s |
| COc1ccc(CC(=O)N2CCN(c3cc(C)n4c(C)nnc4n3)CC2)cc1Cl | 614 s |
| CCOc1ccccc1CNC(=O)CN1CCN(Cc2ccc(F)cc2Cl)C1=O | 920 s |
| CCOc1ccccc1NC(=O)c1c(O)c2cccnc2n(-c2ccccc2)c1=O | 1330 s |
| CCOc1ccc(-c2csc(NC(=O)CCCOc3ccccc3C)n2)cc1 | 1240 s |
| Cc1cc(-c2csc(S(=O)(=O)NCCCN3CCN(c4ccccc4F)CC3)c2)on1 | 704 s |
| COc1ccc(Cl)cc1C(=O)NC1CCN(c2cc(-c3cccs3)[nH]n2)C1 (centres undefined) | 802 s |
| CC1CCCCN1S(=O)(=O)c1ccc2c(c1)CCC(=O)N2CC(=O)NC1CCCCC1 (centres undefined) | 921 s |
| Cc1c(Cl)cccc1NC(=O)N1CCN(CCn2c(C(F)(F)F)nc3cccnc32)CC1 | 666 s |
| Cn1nccc1C(=O)N1CCc2c(c(CO)nn2Cc2ccccc2)C1 | 630 s |
| C[C@H]1CCCC(=O)CCC/C=C/c2c(O)cc(O)cc2C(=O)O1 | 888 s |
| COC(=O)c1nc(NC(=O)Cn2nc3c(cc2=O)CCCCC3)sc1C(C)C | 864 s |
| CCn1ncc(NC(=O)c2cccc(OC)c2)c(N2CCOCC2)c1=O | 788 s |
| COc1ccc(OC)c(NC(=O)NC(C)C(=O)N2CCc3ccccc32)c1 (centres undefined) | 859 s |
| Cc1cc(C)cc(NS(=O)(=O)c2cc(-c3[nH]ncc3C(=O)N(C)C)oc2C)c1 | 718 s |
| CC(C)CNC(=O)c1ccc(-n2cc(CNC(=O)C3CC3)cn2)cc1 | 682 s |

More lines, now with the values ahead:

| RP-LC retention time | SMILES |
| --- | --- |
| 693 s | OC(COc1ccccc1Cl)Cn1c(C2CC2)nc2ccccc21 (centres undefined) |
| 986 s | Cc1ccc(C(=O)Nc2ccc3c(c2)Sc2ncccc2C(=O)N3C(C)C)cc1F |
| 902 s | CCc1nc(OCC(=O)Nc2ccccc2C(=O)OC)c2ccccc2n1 |
| 585 s | Cn1nc(C(=O)Nc2onc3c2CSC3)ccc1=O |
| 888 s | CC(C)c1ccc(NC(=O)C2CCc3nc(N4CCOCC4)ncc3C2)cc1 (centres undefined) |
| 527 s | CN(C)C[C@@H]1CN(c2ccncn2)C[C@H]1NC(=O)c1ccc2c(c1)OCO2 |
| 584 s | NC(=O)[C@@H]1C[C@H](Oc2cccnc2)CN1C(=O)CC1CCCC1 |
| 655 s | O=C(Cn1nc2n(c1=O)CCCCC2)Nc1ccc2c(c1)OCO2 |
| 1090 s | Cc1cc(Cl)ccc1NC(=O)c1cc(C(C)C)on1 |
| 756 s | Cc1cc(Cl)ccc1S(=O)(=O)N1CCc2nn(C)c(=O)n2CC1 |
| 931 s | Cc1cc(C)cc(C(=O)N2CCCC(COc3ccc(C(=O)NC(C)C)cc3)C2)c1 (centres undefined) |
| 551 s | O=C(NCC1CCCO1)N1CCCn2nc(-c3ccncc3)cc2C1 (centres undefined) |
| 763 s | N#Cc1cccc(NC(=O)C2CCN(S(=O)(=O)c3ccc4c(c3)NC(=O)CO4)CC2)c1 |
| 723 s | O=C(c1ccc(OCC2CCCN2C(=O)c2ccc(F)cc2F)cc1)N1CCOCC1 (centres undefined) |
| 952 s | CC1(C(=O)NC2CCCCCCC2)CN(S(C)(=O)=O)CC(=O)N1c1ccc(F)cc1F (centres undefined) |
| 675 s | O=c1n(CC2CO2)c(=O)n(CC2CO2)c(=O)n1CC1CO1 (centres undefined) |
| 946 s | O=C(NCc1ccc(F)cc1)N1CCCC1c1nc(-c2cccc(F)c2)no1 (centres undefined) |
| 838 s | Cc1ccc(Nc2c(-c3ccc(N(C)C)cc3)nc3ccc(Br)cn23)cc1 |
| 737 s | CCNC(=O)CCc1nc2ccccc2n(CC(=O)Nc2cc(OC)cc(OC)c2)c1=O |
| 585 s | O=C(CCn1nnc2ccccc2c1=O)NCC1CCS(=O)(=O)C1 (centres undefined) |

| RP-LC retention time | SMILES |
| --- | --- |
| 607 s | CC1CC(=O)c2cn3ncnc3nc2C1 (centres undefined) |
| 603 s | O=C(C1CCCN(c2ccncc2)C1)N1CCCCCC1 (centres undefined) |
| 728 s | Cn1nnc2cc(C(=O)N3CCC(C(=O)NC4CCCc5ccccc54)CC3)ccc21 (centres undefined) |
| 817 s | CC(C)N1CCCn2cc(S(=O)(=O)NC3CCCCCC3)cc2C1=O |
| 1000 s | COc1ccc(N2CC(c3nc(-c4ccc(Cl)cc4)no3)CC2=O)c(OC)c1 (centres undefined) |
| 974 s | COc1cc(-c2noc(CCn3nc(-c4ccc(Cl)cc4)ccc3=O)n2)cc(OC)c1OC |
| 592 s | O=C(Cn1c(=O)c2cccn2c2ccccc21)NCCN1CCOCC1 |
| 739 s | COc1ccc(C(=O)Nc2nc(CC(=O)NCc3cccs3)cs2)cc1 |
| 1030 s | Cc1ccc(NC(=O)Cn2c(C)nc3c(sc4nc(-c5ccccc5)ccc43)c2=O)cc1Cl |
| 614 s | COc1ccc(C)cc1NC(=O)C(=O)NCCN1CCN(c2ccccc2F)CC1 |
| 925 s | Cc1cc(C)cc(NC(=O)Cn2c(=O)nc(N3CCC(C)CC3)c3ccccc32)c1 |
| 1070 s | O=C(NC1CCCCCCC1)c1nnc(-c2ccc(S(=O)(=O)N3CCCC3)cc2)o1 |
| 644 s | CCOC(=O)c1c(S(=O)(=O)N2CCC(C(=O)Nc3cc(C)ccn3)CC2)c(C)n(C)c1C |
| 708 s | O=C(Nc1nnc(C2CC(=O)N(c3ccccc3)C2)o1)c1ccc(F)cc1 (centres undefined) |
| 729 s | CNC(=O)CN1c2ccccc2NC2=C(C(=O)CC(C)(C)C2)C1c1ccc(OC)cc1 (centres undefined) |
| 896 s | O=C(NCc1ccccc1)c1cc2c(=O)n(Cc3ccccc3)ccc2s1 |
| 1030 s | O=C(Cn1cnc2c(-c3ccc(F)cc3)csc2c1=O)Nc1ccc(Br)cc1F |
| 576 s | O=C(c1cccnc1)N1CCC(n2c(-c3ccsc3)nc3cccnc32)C1 (centres undefined) |
| 701 s | Cc1cccc2nnc(N3CCN(C(=O)c4ccc(Cl)s4)CC3)n12 |
